The structures appear in SMILES notation.

Consider `CC(=O)OCC1=C(C(=O)O)N2C(=O)C(NC(=O)Cc3ccc([N+](=O)[O-])o3)C2SC1` (centres undefined), for which the logP (usually a log measure of how a compound divides between an organic and an aqueous phase) stood at 0.72. In turn, `CC1=C(C(=O)O)N2C(=O)C(NC(=O)Cc3ccco3)C2SC1` (centres undefined) yielded a logP of -0.13. `CC(=O)OCC1=C(C(=O)O)N2C(=O)C(NC(=O)Cc3ccc(-c4ccccc4Cl)o3)C2SC1` (centres undefined) returned a logP of 2.42.

In turn, `CC(=O)OCC1=C(C(=O)O)N2C(=O)C(NC(=O)Cc3ccc(-c4c(Cl)cccc4Cl)o3)C2SC1` (centres undefined) registered a logP of 2.78. With `CC1=C(C(=O)O)N2C(=O)C(NC(=O)Cc3ccc(-c4ccc(Cl)cc4)o3)C2SC1` (centres undefined) the figure was 2.38; with `CC(=O)OCC1=C(C(=O)O)N2C(=O)C(NC(=O)Cc3ccc(-c4ccc(Cl)cc4)o3)C2SC1` (centres undefined), 2.76; with `CC1=C(C(=O)O)N2C(=O)C(NC(=O)Cc3ccc(-c4c(Cl)cccc4Cl)o3)C2SC1` (centres undefined), 3.6.

`CC(=O)OCC1=C(C(=O)O)N2C(=O)C(NC(=O)Cc3ccco3)C2SC1` (centres undefined) gave a logP of 0.09.

On to `CC1=C(C(=O)O)N2C(=O)C(NC(=O)Cc3ccc(-c4ccccc4)o3)C2SC1` (centres undefined), for which the logP was found to be 1.66.

The record behind these values is the SangsterLogP compilation.
